Read-outs that look alike come from different tables or passages of the source.
Columns and labels:
[1] = test system: Carrageenin edema, rat's paw; assay: Rat's paw test, carrageenin edema (amputation methodology); type: in vivo; conditions: 1000 mg/kg p.o. one hour before initiating the inflammation, paws weighed three hours after carrageenin
Description: The so-called amputation methodology, described by C. H. Winter in Journal of Pharmaceutical and Experimental Therapeutics, Vol. 141 (1963), page 369, was used as a further rat's paw test. In this method, the test animals are killed three hours after injecting the substance causing the inflammation, and the weights of the paws are ascertained. The product used to cause inflammation in these tests is carrageenin. The inhibiting of the development of the edema of the rats' paws by the test substance, which was administered orally one hour before initiating the inflammation,serves as an indication of the efficacy and is expressed in percentages.

[2] = Orientating test of toxicity; conditions: in vivo
Procedure: The alkoxybenzoic acid esters, to be used in accordance with the present invention, were tested for their inflammation-inhibiting properties in the experiments described hereinafter. An orientating test of their toxicity was first carried out in order to be able to establish the test dosages for further experiments.

[3] = test system: UV erythema in guinea pig; assay: Ultraviolet erythema test in guinea pigs; type: in vivo; conditions: 5% Tincture, mean of assessments six hours after radiation and the following morning
Procedure: Guinea pigs were subjected to the ultraviolet erythema test in a further experiment. For this purpose, the hair was removed from the backs of the test animals by shearing and treatment with a depilatory cream. The test animals were then exposed to radiation for eight minutes, and the marked test areas were then treated with the test solutions or salves. A second application was effected after thirty minutes, and a third and the following treatments were effected at intervals of sixty minutes. Six hours after having been exposed to radiation, the animals were washed, dried and visually assessed.
Assessment was repeated the following morning and the mean value for each substance was calculated from the two assessments. The two spots exposed to radiation directly behind the ears were chosen as reference points which had been exposed to radiation and which had not been treated. The intensity of the redness of these spots was equated with 0. Disappearance of the redness at the treated places was assessed by plus points up to +4 (no spots visible), and an intensification of the redness was assessed with minus points up to -4 (formation of blisters). The total of the assessments from the two evaluations, expressed in the ratio to the number of animals times 8 as the maximum attainable value (= 100%) gives the percentage inhibiting value of the substance. The inhibiting values ascertained in this manner are given in the following table under the heading "UR Erythema Guinea Pigs".

[4] = test system: UV edema in hairless mouse; assay: Ultraviolet test on hairless mice (UV edema, skin fold thickness); type: in vivo; conditions: 5% in Vaseline, skin fold thickness after 30 hrs
Procedure: However, an ultraviolet test was carried out on hairless mice which also provide information concerning the efficacy of the substances for use as agents for treating sunburn. The backs of the hairless mice were exposed to radiation by an ultraviolet lamp for thirty minutes from a distance of 60 cm, thus causing a cutaneous inflammation. […] The dosage of the test substances was the same as in the rat's paw test. The degree of formation of edema was determined by measuring the skin fold thickness after thirty hours. The degree of the percentage inhibition of the erythema is given in the following Table I and was determined by comparing the change in the skin fold thickness, caused in treated test animals by exposure to radiation, with the change in the skin fold thickness in animals which, although exposed to radiation, had not been treated.

Dextran edema, rat's paw = assay: Edema of the rat's paw test, dextran edema; type: in vivo; conditions: 1000 mg/kg p.o. thirty minutes before dextran, measured thirty minutes after dextran injection
Procedure: The edema of the rat's paw test, as described by F. Kemper in "Arzneimittelforschung" 10 (1960), p. 777, was used as a test for assessing the compounds with respect to their suitability for inhibiting inflammation. In order to produce the edema, 0.1 ml of 6% dextran solution was injected to a depth of approximately 5 mm between the second and third toe of the right hind paw of the test animals. While only the dextran solution was administered to the control test animals, the various test substances were injected or administered per os to the test animals in the quantities given in Table I thirty minutes before the test animals were injected with the dextran solution. The volume of the paws was determined by means of the electrical volume measuring device described in detail by Kemper & Amelin in "Zeitschrift fur die gesamte experimentelle Medizin" 131 (1958), p. 407.
The measurements were taken thirty minutes after the dextran solution injection. For the purpose of comparison, the left untreated paw was in each case measured at the said times. The amount of the swelling in animals which had been treated with the test substance and in non-treated animals thirty minutes after the dextran injection were used to calculate the degree of the inhibiting of the edema as a percentage of the swelling which occurred in animals which had not received any test substance.

SMILES | Rat's Paw Test Carrageenin Edema Inhibition [1] [%] | LD50 ([2]; read-out: Orientating Toxicity) [mg/kg] | UV Erythema in Guinea Pig Inhibition [3] [%] | UV Edema in Hairless Mouse Inhibition After 30 hrs [4] [%] | Rat's Paw Test Dextran Edema Inhibition (Dextran edema, rat's paw) [%] | Orientating Toxicity [2] | LD50 [2] [mg/kg]
CCCOC(=O)c1ccc(OC)cc1 [Compound A, n-Propyl Anisate] | 12 | > 1000 | 60 | 49 | 25 | – | –
COC(=O)c1ccc(OC)cc1 [Compound B, Methyl Anisate] | 18 | > 1000 | 31 | 41 | 28 | – | –
COc1ccc(C(=O)OC(C)C)cc1 [Compound C, Isopropyl Anisate] | 9 | > 1000 | 40 | 38 | 20 | – | –
CCCCOC(=O)c1ccc(OC)cc1 [Compound D, Butyl Anisate] | 11 | > 1000 | 51 | 36 | 9 | – | –
COc1ccc(C(=O)OC(C)(C)C)cc1 [Compound E, Tert.-Butyl Anisate] | 41 | > 1000 | 43 | 30 | 11 | – | –
COc1ccc(C(=O)OCC(C)(C)C)cc1 [Compound F, 2,2-Dimethyl-propyl Anisate] | 30 | – | 48 | 35 | 15 | 22 1.0 gm/kg | –
COc1ccc(C(=O)OCc2ccccc2)cc1 [Compound G, Benzyl Anisate] | 19 | – | 46 | 31 | 5 | – | > 1000

From patent US4136165A, “Cosmetic preparations with alkoxybenzoic acid esters as inflammation inhibitors and method” (Henkel Kommanditgesellschaft auf Aktien, priority 1976, dated 1979)
